In patent US20200102349A1, “PEPTIDE REAGENTS AND METHODS FOR DETECTION AND TARGETING OF DYSPLASIA, EARLY CANCER AND CANCER” (THE REGENTS OF THE UNIVERSITY OF MICHIGAN, priority 2014, published 2020):

Assays:
[1] = system: human biliary tract epithelium; test: Immunofluorescence of QRH*-Cy5.5 on human biliary tract epithelium
EGFR = EGFR (Homo sapiens, UniProt P00533); test: siRNA knockdown of EGFR in HT29 cells, confocal fluorescence microscopy; format: cell-based; set-up: endogenous in cells; host or cells: HT29 human colorectal adenocarcinoma cells (ATCC)
Protocol: HT29, SW480, and SW620 cells (˜10^3) were grown on cover slips to ˜80% confluence. The cells were washed 1× with PBS and incubated with 5 μM of QRH*-Cy5.5 and PEH*-Cy5.5 for 3 min at RT. The cells were then washed 3× in PBS, fixed with 4% paraformaldehyde (PFA) for 5 min, washed 1× with PBS, and then mounted on glass slides with ProLong Gold reagent containing DAPI (Invitrogen). Confocal fluorescence images were collected with FITC, Cy5.5, and DAPI filters (Leica Inverted SPSX Confocal Microscope System) using a 63× oil-immersion objective. Fluorescence intensities from 5 cells in 2 independent images were quantified using custom Matlab (Mathworks) software.
We used siRNA to knockdown expression of EGFR in HT29 cells. We used ON-TARGETplus human EGFR siRNA and ON-TARGETplus non-targeting pool (Thermo Scientific) per manufacturer's protocol. 5 μL of siRNA at 5 μM/L concentration was transfected into HT29 cells using DharmaFECT (Thermo Scientific). QRH*-Cy5.5 and PEH*-Cy5.5 were incubated with HT29 siEGFR and siCL cells. The cells were fixed with either 4% PFA or methanol. A 1:1000 dilution of primary monoclonal mouse anti-EGFR antibody (Thermo Scientific, # MS-396, clone 199.12, IgG2a isotype) was incubated overnight at 4° C. Afterwards, the cells were washed 3× with PBS, and further incubated with 1:500 dilution of AF488-labeled secondary goat anti-mouse IgG antibody (Life Technologies, # A-11029) for 1 hour at RT, washed 3×, and then mounted on glass slides with ProLong Gold reagent containing DAPI (Invitrogen). Confocal fluorescence images were collected with FITC, Cy5.5, and DAPI filters using a 63× oil-immersion objective.
We validated specific binding of QRH*-Cy5.5 to EGFR on siRNA knockdown in HT29 cells. On confocal microscopy, QRH*-Cy5.5 (red), FIG. 2A, and AF488-labeled anti-EGFR (green), FIG. 2B, bind strongly to the surface (arrows) of control HT29 cells (transfected with siCL, non-targeting siRNA), scale bars 30 μm. […] The results (mean±std) for QRH*-Cy5.5, anti-EGFR AF488, and PEH*-Cy5.5 to control cells (siCL) were 7.8±1.7, 3.1±1.0, and 1.6±0.3 AU, respectively, and to EGFR knockdown cells (siEGFR) were 2.5±0.8, 1.0±0.4, and 1.9±0.7 AU, respectively, *P<0.01 by paired t-test, FIG. 2G. Results are an average of 10 cells from 2 images performed independently. EGFR expression is shown on Western blot, FIG. 12H.

[2] = system: colonic dysplasia (flat lesions and polyps); test: In vivo NIR fluorescence endoscopy of colon in CPC;Apc mouse; details: for mean (±SD) log of the T/B ratio: topical 100 μM, 5 min incubation
Protocol: For the in vivo fluorescence images of mouse colon, the T/B ratios for flat dysplasia and polyps were log-transformed to improve normality. The fold-change between classification pairs was estimated using the anti-log of the difference in the log-transformed data. Differences in results between the experimental and control peptides were evaluated on t-test. *P<0.05 was considered significant. Similar methods were used to evaluate the ex vivo fluorescence images of human colonic specimens. The results were plotted on a receiver-operator characteristic (ROC) curve. Co-localization of peptide and antibody binding was evaluated on Pearson's correlation coefficient. All analyses were performed using custom Matlab software (MathWorks Inc).
Mouse imaging studies were performed with approval of the University of Michigan Committee on the Use and Care of Animals (UCUCA). The mice were housed in pathogen-free conditions and supplied water ad libitum under controlled conditions of humidity (50±10%), light (12/12 hour light/dark cycle) and temperature (25° C.). Anesthesia was induced and maintained via a nose cone with inhaled isoflurane mixed with oxygen at a concentration of 2-4% at a flow rate of ˜0.5 L/min. The colon was first rinsed with tap water to remove mucous and debris. White light illumination was used first to identify anatomic landmarks, including polyps, mucosal folds, colonic segment, and distance of endoscope tip from anus, to register images with histology. The Cy5.5-labeled peptides were delivered at a concentration of 100 μM in a volume of 1.5 mL through the 3 Fr instrument channel. After 5 min for incubation, the colon was rinsed 3× with a tap water to remove the unbound peptides. After imaging was completed, the mice were euthanized. The colon was resected, and divided along the longitudinal axis. Flat lesions and polyps were identified on fluorescence, excised perpendicular to the mucosal surface, and processed for histology (H&E). We collected images from mice (n=5) that ranged in age from 7 to 10 months.
Imaging was performed using a small animal endoscope (Karl Storz Veterinary Endoscopy).^39 A xenon light source provides white light illumination via a fluid light cable. A diode-pumped solid state laser (TechnicaLaser Inc) provides excitation at λex=671 nm. The laser beam is expanded to a diameter of 3 mm to fill the aperture of the light cable. The laser power at the tip of the endoscope is <2 mW. The white light images reflect off a dichroic mirror (Semrock Inc, # FF685-Di02-25×36, λc=685 nm), and are focused by an achromatic doublet (Edmund Optics Inc, #32-323). They pass through a neutral density filter (OD 1), and are detected by a color camera (Point Grey Research, # GX-FW-28S5C-C). The fluorescence images pass through the dichroic and a band pass filter (Semrock Inc, # FF01-716/40-25, λC=716 nm, Δλ=40 nm), and are focused on a monochrome camera (Point Grey Research, # GX-FW-28S5M-C). All videos (1932×1452 resolution) are recorded at 15 frames per sec via a firewire connection.
White light and fluorescence videos were exported in avi format with 24 (RGB) and 8 (grayscale) bit digital resolution for the color and fluorescence images, respectively. […] Individual frames were exported using custom Matlab software. On the fluorescence images, 3 regions of interest (ROI, 25×25 pixels) were picked at random within the dysplastic lesion and within adjacent areas of normal-appearing mucosa. The mean intensities within these ROI's on the fluorescence images were measured. The target to-background (T/B) ratio for each image was determined by ratioing the mean intensities of these two ROIs.

fluorescence intensity (mean±std) (EGFR; EGFR knockdown HT29 cells (siEGFR)): 2.5±0.8 AU
fluorescence intensity (mean±std) (EGFR; control HT29 cells (siCL, non-targeting siRNA)): 7.8±1.7 AU
Substance: QRHKPRE (SEQ ID NO: 1) with Cy5.5 fluorophore attached via a GGGSK linker (SEQ ID NO: 18) on the C-terminus [QRH*-Cy5.5]
staining on immunofluorescence ([1]; biliary intraepithelial neoplasia (BilIN) and biliary tract cancer): intense staining
staining on immunofluorescence ([1]; normal biliary tract epithelium): minimal staining
mean fold-difference of T/B, QRH*-Cy5.5 versus PEH*-Cy5.5 ([2]; flat lesions (n=15)): 2.05
mean (±SD) log of the T/B ratio ([2]; flat lesions (n=15)): 0.420±0.103
mean fold-difference of T/B, QRH*-Cy5.5 versus PEH*-Cy5.5 ([2]; polyps (n=15)): 2.43
mean (±SD) log of the T/B ratio ([2]; polyps (n=15)): 0.572±0.181
NIR fluorescence signal from polyp and flat lesions in vivo ([2]; topical, distal colon, 5 min): increased intensity
